Assays:
hERG channel = hERG channel (Homo sapiens (Human), UniProt Q12809); experiment: hERG channel inhibition assay (patch-clamp, CHO cells); format: cell-based; details: for IC50 / IC20: CHO hERG cells, whole-cell patch-clamp; for IC20: human, CHO cells stably expressing hERG channels; for hERG IC20/TLR7 IC50 / hERG IC20/TLR8 IC50 / hERG IC20/TLR9 IC50: safety ratio
Method: The hERG K^+ channels were cloned in humans and stably expressed in a CHO (Chinese hamster ovary) cell line. CHOhERG cells were used for patch-clamp (voltage-clamp, whole-cell) experiments. Cells were stimulated by a voltage pattern to activate hERG channels and conduct IKhERG currents (rapid delayed outward rectifier potassium current of the hERG channel). After the cells were stabilized for a few minutes, the amplitude and kinetics of IKhERG were recorded at a stimulation frequency of 0.1 Hz (6 bpm). Thereafter, the test compound was added to the preparation at increasing concentrations. For each concentration, an attempt was made to reach a steady-state effect, usually, this was achieved within 3-10 min at which time the next highest concentration was applied. The amplitude and kinetics of IKhERG are recorded in each concentration of the drug which were compared to the control values (taken as 100%). (references: Redfern W S, Carlsson L, Davis A S, Lynch W G, MacKenzie I, Palethorpe S, Siegl P K, Strang I, Sullivan A T, Wallis R, Camm A J, Hammond T G. 2003; Relationships between preclinical cardiac electrophysiology, clinical QT interval prolongation and torsade de pointes for a broad range of drugs: evidence for a provisional safety margin in drug development. Cardiovasc. Res. 58:32-45, Sanguinetti M C, Tristani-Firouzi M. 2006; hERG potassium channels and cardiac arrhythmia. Nature 440:463-469, Webster R, Leishman D, Walker D. 2002; Towards a drug concentration effect relationship for QT prolongation and torsades de pointes. Curr. Opin. Drug Discov. Devel. 5:116-26).

TLR9 = TLR9 (Homo sapiens (Human), UniProt Q9NR96); experiment: Human PBMC cell-based assay, TLR9; details: CpG ODN 2216 at 1 μM, overnight, cytokine readout, read-out: hPBMC/TLR9 IC50
Description: (§1) Unlike the HEK reporter cell lines, human peripheral blood mononuclear cell (PBMC) represents primary human immune cells in blood mainly consisting of lymphocytes, monocytes, and dendritic cells. These cells express TLR7, TLR8, or TLR9, and therefore are natural responders to respective ligand stimulation. Upon activation of these TLRs, PBMCs secrete similar cytokines and chemokines in vitro and in vivo, and therefore the in vitro potency of a TLR7/8/9 antagonist in human PBMC is readily translatable to its pharmacodynamics response in vivo.
(§2) Human peripheral blood mononuclear cells (PBMC) were isolated from freshly-drawn lithium-heparinized (Lithium Heparin Plus blood Collection tube, BD Vacutainer®) healthy donor whole blood by density gradient (Ficoll-Paque™ PLUS, GE Healthcare life Sciences). Briefly, […] was diluted with 25 mL PBS (without Ca^2+, Mg^2+) in a 50 mL conical tube with porous barrier (Leucosep tube, Greiner bio-one), where 15.5 mL Ficoll-Paque was under laid after spinning. Tubes were centrifuged for 20 minutes at 800×g (1946 rpm) with the brake in the off position, and PBMC were collected from the buffy coat. Cells were then washed twice in PBS, and red blood cells were lysed by suspension in 2 mL (Red Blood Cell Lysis Buffer, Alfa Aesar) for 5-10 minutes at room temperature. After a final wash in PBS, PBMC were resuspended at a final concentration of 2×10^6 cells/mL in RPMI-1640 media with GlutaMAX™ (Gibco) supplemented with 10% Fetal Bovine Serum (Sigma) and plated at 150 μL/well (3×10^5 cells/well) in tissue culture treated round bottom 96-well plates (Corning Incorporated). Antagonist compounds (compounds of this invention) solubilized and serial diluted in 100% DMSO were added in duplicate to cells to yield a final concentration of 1% DMSO (v/v). PBMC were incubated with antagonist compounds for 30 minutes at 37° C., 5% CO2 before adding various TLR agonist reagents in 48 μL complete media per well as follows (final concentrations indicated): CpG ODN 2216 (InvivoGen) at 1 μM for TLR9, ORN 06/LyoVec (InvivoGen) at 1 μg/mL for TLR8 and R848 (InvivoGen) at 1 μg/mL for TLR7 and TLR8. PBMC were incubated overnight at 37° C. with 5% CO2. Cell culture supernatants were collected, and levels of various human cytokines were assessed by Luminex assay (ProcartaPlex™ Multiplex Immunoassay, Invitrogen) or ELISA procedure according to the manufacturer's recommended protocol (eBioscience, ThermoFisher Scientific). Viability of the cells was also checked with Cell Viability Assay (CellTiter Glo®Luminescent Cell Viability Assay, Promega).

TLR7 and TLR8 = experiment: Human PBMC cell-based assay, TLR7 and TLR8; details: R848 at 1 μg/mL, overnight, cytokine readout, read-out: hPBMC/TLR78 IC50
Description: as §1
as §2, with “PBMC were incubated with antagonist compounds for 30 minutes at 37° C., 5% CO2 before adding various TLR agonist reagents in 48 μL complete media per well as follows (final concentrations indicated): CpG ODN 2216 (InvivoGen) at 1 μM for TLR9, ORN 06/LyoVec (InvivoGen) at 1 μg/mL for TLR8 and R848 (InvivoGen) at 1 μg/mL for TLR7 and TLR8. PBMC were incubated overnight at 37° C. with 5% CO2.” left out, “Viability of the cells was also checked with Cell Viability Assay (CellTiter Glo®Luminescent Cell Viability Assay, Promega).” left out

Chain of TLR9 (Q9NR96 26-1032): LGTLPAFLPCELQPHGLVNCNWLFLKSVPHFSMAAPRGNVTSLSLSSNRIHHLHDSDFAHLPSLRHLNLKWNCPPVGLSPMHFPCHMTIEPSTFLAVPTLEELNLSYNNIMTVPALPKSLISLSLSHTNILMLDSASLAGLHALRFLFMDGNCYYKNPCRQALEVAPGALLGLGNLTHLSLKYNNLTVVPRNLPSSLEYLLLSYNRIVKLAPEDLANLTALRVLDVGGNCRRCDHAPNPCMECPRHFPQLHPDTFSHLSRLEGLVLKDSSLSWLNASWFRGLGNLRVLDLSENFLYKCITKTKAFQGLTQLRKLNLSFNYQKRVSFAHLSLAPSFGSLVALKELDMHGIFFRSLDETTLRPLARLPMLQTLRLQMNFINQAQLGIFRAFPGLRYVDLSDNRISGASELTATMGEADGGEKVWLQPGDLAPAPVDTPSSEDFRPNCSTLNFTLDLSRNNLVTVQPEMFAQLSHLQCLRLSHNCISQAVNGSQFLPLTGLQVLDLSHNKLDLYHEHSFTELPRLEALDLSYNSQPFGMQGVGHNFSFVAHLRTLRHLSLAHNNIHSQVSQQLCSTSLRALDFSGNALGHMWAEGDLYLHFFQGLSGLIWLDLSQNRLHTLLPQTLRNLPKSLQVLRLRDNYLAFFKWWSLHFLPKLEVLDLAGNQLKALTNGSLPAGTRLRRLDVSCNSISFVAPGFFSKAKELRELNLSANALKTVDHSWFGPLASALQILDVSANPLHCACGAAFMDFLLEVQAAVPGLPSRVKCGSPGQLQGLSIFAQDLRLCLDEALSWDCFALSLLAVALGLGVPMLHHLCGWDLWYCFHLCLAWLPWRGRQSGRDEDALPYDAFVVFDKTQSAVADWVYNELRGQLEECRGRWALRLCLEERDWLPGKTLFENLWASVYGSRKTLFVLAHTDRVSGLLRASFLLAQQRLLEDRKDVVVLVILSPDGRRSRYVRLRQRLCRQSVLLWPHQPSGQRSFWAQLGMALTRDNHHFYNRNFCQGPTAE
Chain of hERG channel (Q12809 whole entry): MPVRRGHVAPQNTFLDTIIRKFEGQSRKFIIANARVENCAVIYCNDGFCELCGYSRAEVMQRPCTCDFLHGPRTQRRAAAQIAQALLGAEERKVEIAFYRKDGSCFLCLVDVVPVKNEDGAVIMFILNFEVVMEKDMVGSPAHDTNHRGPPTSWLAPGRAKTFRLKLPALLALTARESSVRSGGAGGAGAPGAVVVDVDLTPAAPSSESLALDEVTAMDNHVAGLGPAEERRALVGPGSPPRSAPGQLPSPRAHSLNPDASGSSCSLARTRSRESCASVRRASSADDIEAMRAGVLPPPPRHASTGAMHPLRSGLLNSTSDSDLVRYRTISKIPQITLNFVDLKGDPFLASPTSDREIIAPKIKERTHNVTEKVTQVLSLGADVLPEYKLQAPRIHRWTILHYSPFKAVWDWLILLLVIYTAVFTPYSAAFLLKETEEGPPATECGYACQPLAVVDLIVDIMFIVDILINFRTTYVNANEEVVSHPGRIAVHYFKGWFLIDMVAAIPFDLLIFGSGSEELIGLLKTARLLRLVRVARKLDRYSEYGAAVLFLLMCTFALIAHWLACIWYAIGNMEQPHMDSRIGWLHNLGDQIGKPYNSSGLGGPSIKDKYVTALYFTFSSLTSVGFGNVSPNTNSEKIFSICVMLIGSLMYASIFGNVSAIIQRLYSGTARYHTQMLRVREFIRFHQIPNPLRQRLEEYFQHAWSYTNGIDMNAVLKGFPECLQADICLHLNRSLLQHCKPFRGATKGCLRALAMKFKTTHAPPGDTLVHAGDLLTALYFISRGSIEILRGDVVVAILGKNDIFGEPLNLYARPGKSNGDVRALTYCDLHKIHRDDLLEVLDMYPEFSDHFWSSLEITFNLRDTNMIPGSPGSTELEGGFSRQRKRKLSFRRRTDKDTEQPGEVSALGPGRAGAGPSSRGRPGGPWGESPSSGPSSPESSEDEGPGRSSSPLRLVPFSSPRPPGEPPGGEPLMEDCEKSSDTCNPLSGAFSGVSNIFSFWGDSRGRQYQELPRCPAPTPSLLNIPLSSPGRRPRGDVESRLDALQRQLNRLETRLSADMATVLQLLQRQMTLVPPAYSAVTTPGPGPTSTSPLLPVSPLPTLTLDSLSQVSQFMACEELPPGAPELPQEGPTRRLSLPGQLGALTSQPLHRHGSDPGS

| Compound | IC50 (hERG channel) [nM] | IC20 (hERG channel) [nM] | hERG IC20/TLR7 IC50 (hERG channel) | hERG IC20/TLR8 IC50 (hERG channel) | hERG IC20/TLR9 IC50 (hERG channel) | IC50 (TLR9) [nM] | IC50 (TLR7 and TLR8) [nM] |
| --- | --- | --- | --- | --- | --- | --- | --- |
| Cc1cn2cc(-c3ccc(N4CCC(N)CC4)nc3C(C)C)cc(C)c2n1 [Example 4, 1-[5-(2,8-dimethylimidazo[1,2-a]pyridin-6-yl)-6-isopropyl-2-pyridyl]piperidin-4-amine] | > 10000 | 4210 | 471.9 | 1448.2 | 27.2 | – | – |
| Cc1cc(-c2cc(C)c3nccn3c2)cnc1N1CCC(N2CCN(C)CC2)CC1 [Example 9, 8-methyl-6-[5-methyl-6-[4-(4-methylpiperazin-1-yl)-1-piperidyl]-3-pyridyl]imidazo[1,2-a]pyridine] | – | – | – | – | – | 500 | 8 |
| Cc1cn2cc(-c3ccc(N4CCC(N5CC(C)(N)C5)CC4)nc3C(F)F)cc(C)c2n1 [Example 12, 1-[1-[6-(difluoromethyl)-5-(2,8-dimethylimidazo[1,2-a]pyridin-6-yl)-2-pyridyl]-4-piperidyl]-3-methyl-azetidin-3-amine] | – | – | – | – | – | 290 | 16 |
| CCc1nc(N2CCC(N3CC4(CNCCO4)C3)CC2)ccc1-c1cc(C)c2nccn2c1 [Example 14, 2-[1-[6-ethyl-5-(8-methylimidazo[1,2-a]pyridin-6-yl)-2-pyridyl]-4-piperidyl]-5-oxa-2,8-diazaspiro[3.5]nonane] | – | – | – | – | – | 250 | – |
| CCc1nc(N2CCC(N3C[C@@H](N)[C@H](OC)C3)CC2)ccc1-c1cc(C)c2nccn2c1 [Example 15, (3R,4R)-1-[1-[6-ethyl-5-(8-methylimidazo[1,2-a]pyridin-6-yl)-2-pyridyl]-4-piperidyl]-4-methoxy-pyrrolidin-3-amine] | > 20000 | 8360 | 2144.2 | 2090 | 38.7 | 470 | – |
| CCc1nc(N2CCC(N3C[C@@H](N)[C@H](OC)C3)CC2)ccc1-c1cc(C)c2nc(C)cn2c1 [Example 17, (3R,4R)-1-[1-[5-(2,8-dimethylimidazo[1,2-a]pyridin-6-yl)-6-ethyl-2-pyridyl]-4-piperidyl]-4-methoxy-pyrrolidin-3-amine] | – | – | – | – | – | 100 | – |
| CCc1nc(N2CCC(C)(N)CC2)ccc1-c1cc(C)c2nc(C)cn2c1 [Example 20, 1-[5-(2,8-dimethylimidazo[1,2-a]pyridin-6-yl)-6-ethyl-2-pyridyl]-4-methyl-piperidin-4-amine] | > 20000 | > 10000 | >1666.7 | >636.9 | >44.2 | 500 | – |
| COc1nc(N2CCC(N3CCNCC3)CC2)ccc1-c1cc(C)c2nccn2c1 [Example 25, 6-[2-methoxy-6-(4-piperazin-1-yl-1-piperidyl)-3-pyridyl]-8-methyl-imidazo[1,2-a]pyridine] | > 20000 | 5780 | 837.6 | 516.0 | 62.8 | 130 | 4.5 |

— patent publication US20230279001A1, “IMIDAZO[1,2-A]PYRIDINE COMPOUNDS FOR THE TREATMENT OF AUTOIMMUNE DISEASE” (Hoffmann-La Roche Inc., priority 2020, published 2023)
